# Laboratory results from patent US11597746B2, “Cyclic dinucleotides as sting agonists” (JANSSEN BIOTECH, INC., priority 2018, dated 2023).
# Target: human STING (Homo sapiens (Human), UniProt Q86WV6, H232R)
# Test: STING SPA binding assay
# Settings: displacement of [3H]-2′3′-cGAMP from biotinylated recombinant STING (residues 139-379, H232R); read-out: hSTING SPA IC50
# Chain of human STING (Q86WV6 139-379 H232R): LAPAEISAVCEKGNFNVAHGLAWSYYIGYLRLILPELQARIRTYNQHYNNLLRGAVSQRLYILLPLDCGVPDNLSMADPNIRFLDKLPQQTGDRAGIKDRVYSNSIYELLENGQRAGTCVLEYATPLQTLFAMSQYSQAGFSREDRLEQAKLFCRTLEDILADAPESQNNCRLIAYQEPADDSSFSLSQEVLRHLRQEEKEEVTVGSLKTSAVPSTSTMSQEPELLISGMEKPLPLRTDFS
row,IC50,Compound
1,> 100000 nM,COc1ccc(CO[C@@H]2[C@@H]3OS(=O)(=O)NC[C@H]4O[C@@H](n5cnc6c(N)ncnc65)[C@H](F)[C@@H]4OP(=O)(O)OC[C@H]3O[C@H]2n2cnc3c(N)ncnc32)cc1 [Compound 15-R]
2,> 100000 nM,Nc1nc2c(ncn2[C@@H]2O[C@@H]3COP(=O)(O)O[C@H]4[C@@H](F)[C@H](n5cnc6c(N)ncnc65)O[C@@H]4CNS(=O)(=O)O[C@H]3[C@H]2OCc2ccccc2)c(=O)[nH]1 [Compound 46]

# Same assay, conditions: natural ligand
row,Compound,values in STING SPA binding assay
1,"Nc1nc2c(ncn2[C@@H]2O[C@@H]3COP(=O)(O)O[C@H]4[C@@H](O)[C@H](n5cnc6c(=O)[nH]c(N)nc65)O[C@@H]4COP(=O)(O)O[C@H]3[C@H]2O)c(=O)[nH]1 [cyclic-di-GMP, reference compound]",within the expected range

# Test system: human STING pathway in THP1-ISG cells
# Test: STING human cell reporter assay
# Type: cell-based
# Settings: IRF-inducible SEAP reporter, 24 h
row,EC50,Compound
1,4.6 nM,"Nc1nc2c(ncn2[C@@H]2O[C@@H]3CNS(=O)(=O)O[C@H]4[C@H](F)[C@H](n5cnc6c(N)ncnc65)O[C@@H]4CO[P@](=O)(S)O[C@H]3[C@H]2F)c(=O)[nH]1 (single isomer, unassigned) [Compound 16-S]"
2,12 nM,Nc1ncnc2c1ncn2[C@@H]1O[C@@H]2CNS(=O)(=O)O[C@H]3[C@@H](F)[C@H](n4cnc5c(N)ncnc54)O[C@@H]3CO[P@@](=O)(S)O[C@H]2[C@H]1F [Compound 2]
3,23700 nM,"Nc1nc2c(ncn2[C@@H]2O[C@@H]3CO[P@@](=O)(S)O[C@H]4[C@@H](F)[C@H](n5cnc6c(N)ncnc65)O[C@@H]4CNS(=O)(=O)O[C@H]3[C@@H]2F)c(=O)[nH]1 (single isomer, unassigned) [Compound 34-R]"
4,2940 nM,Nc1ncnc2c1ncn2[C@@H]1O[C@@H]2COP(=O)(O)O[C@H]3C[C@H](n4cnc5c(N)ncnc54)O[C@@H]3CNS(=O)(=O)O[C@H]2[C@H]1F [Compound 6]
5,350 nM,Nc1ncnc2c1ncn2[C@@H]1O[C@@H]2CNS(=O)(=O)O[C@H]3[C@@H](F)[C@H](n4cnc5c(N)ncnc54)O[C@@H]3CO[P@@](=O)(S)O[C@H]2[C@H]1F [Compound 20-R]
6,6240 nM,Nc1nc2c(ncn2[C@@H]2O[C@@H]3COP(=O)(O)O[C@H]4[C@@H](O)[C@H](n5cnc6c(N)ncnc65)O[C@@H]4CNS(=O)(=O)O[C@H]3[C@H]2F)c(=O)[nH]1 [Compound 9]
7,> 100000 nM,Nc1ncnc2c1ncn2[C@@H]1O[C@@H]2CNS(=O)(=O)O[C@H]3C[C@H](n4cc(F)c5c(N)ncnc54)O[C@@H]3COP(=O)(O)O[C@H]2[C@H]1F [Compound 29]
8,21100 nM,"Nc1nc2c(ncn2[C@@H]2O[C@@H]3CO[P@](=O)(S)O[C@H]4[C@@H](F)[C@H](n5cnc6c(N)ncnc65)O[C@@H]4CNS(=O)(=O)O[C@H]3[C@H]2F)c(=O)[nH]1 (single isomer, unassigned) [Compound 18-S]"
9,2650 nM,Nc1nc(N)c2ncn([C@@H]3O[C@@H]4COP(=O)(O)O[C@H]5[C@@H](F)[C@H](n6cnc7c(N)ncnc76)O[C@@H]5CNS(=O)(=O)O[C@H]4[C@H]3F)c2n1 [Compound 44]
10,730 nM,Nc1ncnc2c1ncn2[C@@H]1O[C@@H]2CNS(=O)(=O)O[C@H]3C[C@H](n4cnc5c(=O)[nH]ncc54)O[C@@H]3COP(=O)(O)O[C@H]2[C@H]1F [Compound 43]
11,64100 nM,CO[C@@H]1[C@@H]2OS(=O)(=O)NC[C@H]3O[C@@H](n4cnc5c(N)ncnc54)[C@H](F)[C@@H]3OP(=O)(O)OC[C@H]2O[C@H]1n1cnc2c(=O)[nH]c(N)nc21 [Compound 4]
12,1830 nM,Nc1nc2c(ncn2[C@@H]2O[C@@H]3CO[P@@](=O)(S)O[C@H]4[C@@H](O)[C@H](n5cnc6c(N)ncnc65)O[C@@H]4CNS(=O)(=O)O[C@H]3[C@H]2F)c(=O)[nH]1 [Compound 14-R]
13,> 100000 nM,Nc1nc2c(ncn2[C@@H]2O[C@@H]3CO[P@](=O)(S)O[C@H]4[C@@H](O)[C@H](n5cnc6c(N)ncnc65)O[C@@H]4CNS(=O)(=O)O[C@H]3[C@H]2F)c(=O)[nH]1 [Compound 14-S]
14,930 nM,"Nc1ncnc2c1ncn2[C@@H]1O[C@@H]2CO[P@@](=O)(S)O[C@H]3[C@@H](F)[C@H](n4cnc5c(=O)[nH]cnc54)O[C@@H]3CNS(=O)(=O)O[C@H]2[C@H]1F (single isomer, unassigned) [Compound 31-R]"
15,290 nM,Nc1ncnc2c1ncn2[C@@H]1O[C@@H]2CNS(=O)(=O)O[C@H]3[C@@H](F)[C@H](n4cnc5c(N)ncnc54)O[C@@H]3CNS(=O)(=O)O[C@H]2[C@H]1F [Compound 47]
16,29 nM,"Nc1ncnc2c1ncn2[C@@H]1O[C@@H]2CO[P@@](=O)(S)O[C@H]3[C@@H](F)[C@H](n4cnc5c(=O)[nH]cnc54)O[C@@H]3COS(=O)(=O)O[C@H]2[C@H]1F (single isomer, unassigned) [Compound 22-R]"
17,47700 nM,"Nc1nc2c(ncn2[C@@H]2O[C@@H]3CO[P@](=O)(S)O[C@H]4[C@@H](F)[C@H](n5cnc6c(N)ncnc65)O[C@@H]4CNS(=O)(=O)O[C@H]3[C@@H]2F)c(=O)[nH]1 (single isomer, unassigned) [Compound 34-S]"

row,EC50,Compound
1,160 nM,Nc1ncnc2c1ncn2[C@@H]1O[C@@H]2CNS(=O)(=O)O[C@H]3[C@@H](F)[C@H](n4cnc5c(N)ncnc54)O[C@@H]3COP(=O)(O)O[C@H]2[C@H]1F [Compound 1]
2,97 nM,"Nc1ncnc2c1ncn2[C@@H]1O[C@@H]2CO[P@](=O)(S)O[C@H]3[C@@H](F)[C@H](n4cnc5c(=O)[nH]cnc54)O[C@@H]3COS(=O)(=O)O[C@H]2[C@H]1F (single isomer, unassigned) [Compound 22-S]"
3,970 nM,"Nc1ncnc2c1ncn2[C@@H]1O[C@@H]2CO[P@](=O)(S)O[C@H]3[C@@H](F)[C@H](n4cnc5c(=O)[nH]cnc54)O[C@@H]3CNS(=O)(=O)O[C@H]2[C@H]1F (single isomer, unassigned) [Compound 31-S]"
4,730 nM,Nc1ncnc2c1ncn2[C@@H]1O[C@@H]2CNS(=O)(=O)O[C@H]3C[C@H](n4cnc5cncnc54)O[C@@H]3COP(=O)(O)O[C@H]2[C@H]1F [Compound 33]
5,730 nM,Nc1ncnc2c1ncn2[C@H]1C[C@@H]2NS(=O)(=O)OC[C@H]3O[C@@H](n4cnc5c(=O)[nH]cnc54)[C@H](F)[C@@H]3OP(=O)(O)OC[C@H]2O1 [Compound 28]
6,180 nM,Nc1ncnc2c1ncn2[C@@H]1O[C@@H]2CNS(=O)(=O)O[C@H]3C[C@H](n4cnc5cc(Cl)c(Cl)cc54)O[C@@H]3COP(=O)(O)O[C@H]2[C@H]1F [Compound 32]
7,> 100000 nM,COc1ccc(CO[C@@H]2[C@@H]3OS(=O)(=O)NC[C@H]4O[C@@H](n5cnc6c(N)ncnc65)[C@H](F)[C@@H]4OP(=O)(O)OC[C@H]3O[C@H]2n2cnc3c(N)ncnc32)cc1 [Compound 15-R]
8,100000 nM,Nc1ncnc2c1ncn2[C@@H]1O[C@@H]2CNS(=O)(=O)O[C@H]3C[C@H](n4nnc5c(=O)[nH]cnc54)O[C@@H]3COP(=O)(O)O[C@H]2[C@H]1F [Compound 42]
9,> 100000 nM,Nc1nc2c(ncn2[C@@H]2O[C@@H]3COP(=O)(O)O[C@H]4[C@@H](F)[C@H](n5cnc6c(N)ncnc65)O[C@@H]4CNS(=O)(=O)O[C@H]3[C@H]2OCc2ccccc2)c(=O)[nH]1 [Compound 46]
10,4230 nM,Nc1ncnc2c1ncn2[C@@H]1O[C@@H]2CNS(=O)(=O)O[C@H]3[C@@H](F)[C@H](n4cnc5c(=O)[nH]cnc54)O[C@@H]3CO[P@](=O)(S)O[C@H]2[C@H]1F [Compound 17-S]
11,93 nM,"Nc1nc2c(ncn2[C@@H]2O[C@@H]3CO[P@@](=O)(S)O[C@H]4[C@@H](F)[C@H](n5cnc6c(N)ncnc65)O[C@@H]4CNS(=O)(=O)O[C@H]3[C@H]2F)c(=O)[nH]1 (single isomer, unassigned) [Compound 18-R]"
12,1830 nM,"Nc1nc2c(ncn2[C@@H]2O[C@@H]3CNS(=O)(=O)O[C@H]4[C@H](F)[C@H](n5cnc6c(N)ncnc65)O[C@@H]4CO[P@@](=O)(S)O[C@H]3[C@H]2F)c(=O)[nH]1 (single isomer, unassigned) [Compound 16-R]"
13,980 nM,Nc1ncnc2c1ncn2[C@@H]1O[C@@H]2CNS(=O)(=O)O[C@H]3[C@@H](F)[C@H](n4cnc5c(=O)[nH]cnc54)O[C@@H]3CO[P@@](=O)(S)O[C@H]2[C@H]1F [Compound 17-R]
14,20 nM,Nc1nc2c(ncn2[C@@H]2O[C@@H]3CNS(=O)(=O)O[C@H]4[C@H](F)[C@H](n5cnc6c(N)ncnc65)O[C@@H]4COP(=O)(O)O[C@H]3[C@H]2F)c(=O)[nH]1 [Compound 13]
15,30 nM,Nc1nc2c(ncn2[C@@H]2O[C@@H]3COP(=O)(O)O[C@H]4[C@@H](F)[C@H](n5cnc6c(N)ncnc65)O[C@@H]4CNS(=O)(=O)O[C@H]3[C@@H]2F)c(=O)[nH]1 [Compound 26]
16,> 100000 nM,Nc1ncnc2c1ncn2[C@@H]1O[C@@H]2CNS(=O)(=O)O[C@H]3C[C@H](n4ncc5c(=O)[nH]cnc54)O[C@@H]3COP(=O)(O)O[C@H]2[C@H]1F [Compound 39]

row,Compound,EC50
1,Nc1ncnc2c1ncn2[C@@H]1O[C@@H]2CNS(=O)(=O)O[C@H]3[C@H]4OO[C@]3(CO[P@](=O)(S)O[C@H]2[C@H]1F)O[C@H]4n1cnc2c(N)ncnc21 [Compound 37-S],640 nM
2,Nc1ncnc2c1ncn2[C@@H]1O[C@@H]2CNS(=O)(=O)O[C@H]3[C@H]4OO[C@]3(CO[P@@](=O)(S)O[C@H]2[C@H]1F)O[C@H]4n1cnc2c(N)ncnc21 [Compound 37-R],880 nM
3,Nc1ncnc2c1ncn2[C@@H]1O[C@@H]2COP(=O)(O)O[C@H]3[C@@H](F)[C@H](n4cnc5c(=O)[nH]cnc54)O[C@@H]3CNS(=O)(=O)O[C@H]2[C@H]1F [Compound 24],70 nM
4,"Nc1ncnc2c1ncn2[C@@H]1O[C@@H]2CNS(=O)(=O)O[C@H]3[C@@H](F)[C@H](n4cnc5c(N)ncnc54)O[C@@H]3CO[P@](=O)(S)O[C@H]2[C@H]1F (single isomer, unassigned) [Compound 3]",540 nM
5,Nc1ncnc2c1ncn2[C@@H]1O[C@@H]2CNS(=O)(=O)O[C@H]3[C@@H](F)[C@H](n4cnc5c(N)ncnc54)O[C@@H]3CO[P@](=O)(S)O[C@H]2[C@H]1F [Compound 20-S],61800 nM
